The values that follow come from article PMC9948168, “Vanillin-Based Indolin-2-one Derivative Bearing a Pyridyl Moiety as a Promising Anti-Breast Cancer Agent via Anti-Estrogenic Activity” (ACS Omega, 2023).

Where two headings read alike, the source gives them in different places.

Data set [1] concerns MCF-7 breast cancer cells. Also on record: method as in doi:10.1016/j.bionut.2013.04.001. The conditions noted are these: cited from earlier work.
Data set [2] relates to estrogen-induced uterotrophic effect. Kind of data set: In vivo anti-estrogenic (anti-uterotrophic) activity, immature rat model. Also noted: species or system Wistar immature female rats. The conditions noted are these: oral, 20 mg/kg (tamoxifen 20 mg/kg/day, 6j equimolar per method), 3 days, with estradiol 10 μg/kg/day s.c.; immature female rats. Here is the method:
The anti-estrogenic activity was assessed as previously described.[65]−[67] All experiments were carried out in accordance with the recommendations of the […] Animal Care and Use Committee. The experimental protocol was approved by “The Commission on the Ethics of Scientific Research”, Faculty of Pharmacy, Minia University (no. ES30/2021). 20-day-old Wistar immature female rats (40–50 g) from the animal care facility of Nahda University at Beni Suef (NUB) were allowed to acclimatize to lab conditions for 3 days before the experiment with free access to food and water. Estradiol was diluted in olive oil and subcutaneously injected on the loose dorsal skin in a dose of 10 μg/kg/day. […] Both compounds were dissolved in a mixture of DMSO, Tween 20, and saline (1:1:8, respectively) and orally administered. The rats were randomly assigned to […] (n = 6) subjected to daily s.c. injections of estradiol, except for the control group. […] On the 4th day, all rats were sacrificed by cervical dislocation, and the uteri were dissected free of fat and weighed immediately. […] The results were expressed as percent inhibition from the formula [drawing 1] […] It is noteworthy that doses of the tested compounds are calculated on a molar basis. […] Values are expressed as mean ± SEM.

Data set [3] deals with MCF-7 cells. In words: iCELLigence real-time cell analysis. The conditions noted are these: Homo sapiens, MCF7, MCF-7, 20 μM, relative to control, read-out: cell viability (% ± SEM). The format is cell-based, human. As for the experimental part: (§1) Therefore, compound 6j was applied in serial doses (2, 5, 10, 20, 50, and 100 μM) to MCF-7 cells and parallel to MCF-12A cells to determine the selectivity and safety. The treatments were performed 24 h after seeding the cells on system-specific biosensor-based plates. A total of 120 h of analyses were monitored, with cell viability measurements taken every 15 min. […] In addition, the viability percentage values for each dose in these periods were calculated and are summarized in Table 3 for MCF-7 and Table 4 for MCF-12A. […] In these treatments, cells were not killed dramatically after adding the highest two doses of 6j (100 and 50 μM); instead, they entered the stationary phase.
(§2) MCF-7 (Cat. no. HTB-22) (human estrogen receptor-positive breast cancer) and MCF-12A (Cat. no. CRL-10782) (human non-tumorigenic mammary epithelial) cell lines were obtained from the American Type Culture Collection (ATCC, Rockville, Maryland, USA). MCF-7 cells were maintained in Dulbecco’s modified Eagle’s medium (DMEM) (Biological Industries, Haemek, Israel) supplemented with 10% heat-inactivated fetal bovine serum (FBS) (Biowest, Nuaillé, France), 2 mM L-glutamine (Biological Industries, Haemek, Israel), 100 U/mL penicillin and 100 μg/mL streptomycin (Gibco, Waltham, MA, USA), and 2.5 μg/mL plasmocin (Invivogen, Toulouse, France) at 37 °C in a 5% CO2 humidified incubator. MCF-12A cells were cultured in a DMEM/F-12 Nutrient Mixture (Ham) (DMEM/F12 1:1 with HEPES and L-glutamine) (Gibco, Waltham, MA, USA) with 10% heat-inactivated FBS, 100 U/mL penicillin, 100 μg/mL streptomycin, and 10 μg/mL insulin (Humulin R, Lilly, Indianapolis, USA), 20 ng/mL epidermal growth factor (Abcam, Cambridge, UK), […] hydrocortisone (Dekort, Deva Ilac, Istanbul, Turkey), and 2.5 μg/mL plasmocin in a humidified atmosphere of 5% CO2 at 37 °C. The cells were routinely cultured in cell culture flasks and checked regularly under an inverted microscope. Cells reaching 80% confluency were passaged by treatment with 0.25% trypsin–EDTA. Total cell numbers were counted by the trypan blue dye exclusion method using a hemocytometer prior to the experiments.
(§3) The iCELLigence real-time cell analysis system was used to conduct a real-time and label-free examination of the activities of compound 6j on cells as we previously described.[62] In brief, following a background measurement with 200 μL of complete medium on iCELLigence E-plate L8, 100 μL of MCF-7 or MCF-12A cells was seeded at a density of 5.0 × 10^3 per well. During the 120 h monitoring, the system took impedance measurements via biosensors every 15 min. At the 24th h of incubation, the cells were treated with increasing concentrations of the 6j compound (2, 5, 10, 20, 50, and 100 μM) in duplicate. For cell culture experiments, compound 6j was dissolved in DMSO (Sigma, St. Louis, USA) at a stock concentration of 20 mM. For treatments, dilutions were prepared from 20 mM stock with a cell growth medium, with a final DMSO concentration of 0.1%. The medium containing 0.1% DMSO was also used as a negative control. […] Data were recorded by the iCELLigence software for 120 h and analyzed at the end of the study.

Data set [4] in a line: iCELLigence real-time cell analysis. The format is cell-based, human. The conditions noted are these: human, MCF-12A, 20 μM, relative to control, read-out: cell viability (% ± SEM). As for the experimental part:
as §1, §2, §3

What is called IC50 is the midpoint of a concentration-inhibition curve. In the case of `COc1ccc(C(=O)/C=C2/C(=O)Nc3ccc(Cl)cc32)cc1OC` [Compound III], the IC50 in data set [1] was 3.59 µM.
What is called viability is a per cent measure of how many cells are alive, often set against a control. As for `CC/C(=C(\c1ccccc1)c1ccc(OCCN(C)C)cc1)c1ccccc1` [tamoxifen, reference compound], the “anti-uterotrophic activity (inhibition of estrogen-induced uterine weight)” value in data set [2] was found to be 50%. For the same compound, the viability at 20 µM was found to be 86.84 ± 0.02% in data set [3] (24 h), 86.84 ± 0.02% in data set [3] (48 h), 85.59 ± 0.04% in data set [3] (72 h) and 80.31 ± 0.07% in data set [3] (96 h). Besides, in data set [4] (MCF-12A cells (non-tumorigenic mammary epithelial), 72 h), the viability at 72 h, 20 µM stood at 84 ± 0.01%. Besides, the viability at 96 h, 20 µM in data set [4] (MCF-12A cells (non-tumorigenic mammary epithelial), 96 h) came to 84 ± 0.01%. The viability at 24 h, 20 µM in data set [4] (MCF-12A cells, 24 h) came to 84 ± 0.01%. Also, the viability at 48 h, 20 µM in data set [4] (MCF-12A cells, 48 h) turned out to be 84 ± 0.01%.
